Consider 3 molecules from article PMC12627627 (Nature Communications, 2025).

The structures appear in SMILES notation.

What all share (type): binding
The target of test [1] is T1, R12 domain of RyR1 (Homo sapiens, UniProt P21817).
T1 construct: RyR1 854–1054, RyR2 865–1065, RyR3 853–1053; made in house; host or cells: E. coli BL21 (DE3)
T1 sequence (P21817 854-1054): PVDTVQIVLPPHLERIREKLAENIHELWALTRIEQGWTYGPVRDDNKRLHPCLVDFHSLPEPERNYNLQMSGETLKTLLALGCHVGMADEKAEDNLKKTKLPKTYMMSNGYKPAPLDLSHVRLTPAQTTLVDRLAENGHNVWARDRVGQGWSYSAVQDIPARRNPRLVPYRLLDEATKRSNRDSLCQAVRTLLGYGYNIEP
Description: ITC, R12 domain of RyR1. The conditions noted are these: AMP-PCP or ADP alone, without DAN/AZU (Supplementary Fig. 1). As to the method:
(§1) The plasmids were subsequently transformed into E. coli BL21 (DE3) cells (NEB, USA) and cultured in Luria-Bertani (LB) media at 37 °C. Protein expression was induced with 0.4 mM isopropyl β-D-thiogalactoside (IPTG) when the optical density (OD)600 reached ~0.8, followed by incubation at 18 °C for 12 h. The cells were harvested via centrifugation at 5,000 × g for 15 min at 4 °C and homogenized in Buffer A (10 mM HEPES, pH 7.4, 250 mM KCl) supplemented with 25 µg/mL DNaseI, 25 µg/mL lysozyme, 1 mM phenylmethylsulfonyl fluoride (PMSF), and 20 mM imidazole. The homogenate was centrifuged at 12,000 × g for 45 min, and the supernatant was filtered through a syringe filter (0.22 µm).
(§2) Purified R12 domain protein from the three RyR isoforms, fused with hexahistidine-tagged MBP (HMT-R12) was dialyzed overnight at 4 °C in ITC buffer (200 mM HEPES, pH 7.4, 150 mM KCl). ITC experiments were performed using a PEAQ-ITC instrument (Malvern, UK) at 25 °C with a stirring speed of 750 rpm. […] For the ternary binding experiments, 500 μM or 5 mM AMP-PCP/ADP was preincubated with both the titrants and titrates. […] The data was fit to a one-site fitting model after background buffer subtraction. The RyR1 R12 mutants were generated using a QuikChange mutagenesis kit (Stratagene) according to the manufacturer’s protocol, with primer sequences listed in Supplementary Table 3.
In general terms: Isothermal titration calorimetry measures the heat released or taken up as one component is titrated into another.

For test [2], the target named is T2, R12 domain of RyR2 (Homo sapiens, UniProt Q92736).
T2 construct: RyR1 854–1054, RyR2 865–1065, RyR3 853–1053; made in house; host or cells: E. coli BL21 (DE3)
T2 sequence (Q92736 865-1065): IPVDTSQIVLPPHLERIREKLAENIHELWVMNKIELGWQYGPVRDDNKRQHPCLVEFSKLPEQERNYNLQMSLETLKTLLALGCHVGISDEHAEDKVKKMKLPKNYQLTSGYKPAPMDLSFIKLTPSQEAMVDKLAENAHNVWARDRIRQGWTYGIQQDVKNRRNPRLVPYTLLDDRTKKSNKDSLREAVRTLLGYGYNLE
Description: ITC, R12 domain of RyR2. The conditions noted are these: absence or presence of AMP-PCP or ADP. As to the method:
as §1, §2

The target of test [3] is T3, R12 domain of RyR3 (Homo sapiens, UniProt Q15413).
T3 construct: RyR1 854–1054, RyR2 865–1065, RyR3 853–1053; made in house; host or cells: E. coli BL21 (DE3)
T3 sequence (Q15413 853-1053): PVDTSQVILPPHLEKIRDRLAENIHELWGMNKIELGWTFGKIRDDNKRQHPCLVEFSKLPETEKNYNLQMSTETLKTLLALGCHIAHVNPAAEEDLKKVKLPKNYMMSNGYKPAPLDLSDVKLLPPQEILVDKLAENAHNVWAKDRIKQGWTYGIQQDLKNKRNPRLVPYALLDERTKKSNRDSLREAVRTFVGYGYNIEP
Description: ITC, R12 domain of RyR3. As to the method: as §1, §2

On to `Nc1ncnc2c1ncn2[C@@H]1O[C@H](COP(=O)(O)OP(=O)(O)O)[C@@H](O)[C@H]1O` [ADP], for which, in test [1], the “binding of nucleotide alone by ITC” value is recorded as “did not exhibit detectable binding”.

In general, Kd refers to the concentration at which binding is half-saturated. For `O=C1CN(/N=C/c2ccc(-c3ccc([N+](=O)[O-])cc3)o2)C(O)=N1` [DAN, Dantrolene], the “binding to RyR2 R12 domain by ITC” value in test [2] is “neither DAN nor AZU exhibited detectable binding”. Besides, the Kd amounted to 259 ± 31 nM in test [3] (RyR3 R12 + 500 µM ADP); 72 ± 20 nM in test [3] (RyR3 R12 + 500 µM AMP-PCP); 60 ± 9 nM in test [3] (RyR3 R12 + 5 mM ADP); 26 ± 10 nM in test [3] (RyR3 R12 + 5 mM AMP-PCP); 235000 ± 122000 nM in test [3] (RyR3 R12, no nucleotide, ITC 25 °C). Besides, the “No of Sites (N)” value in test [3] (RyR3 R12 + 500 µM ADP) is 0.461 ± 0.26; in test [3] (RyR3 R12 + 500 µM AMP-PCP), 0.726 ± 0.53; in test [3] (RyR3 R12 + 5 mM ADP), 0.606 ± 0.23; in test [3] (RyR3 R12 + 5 mM AMP-PCP) it was 0.842 ± 0.36; in test [3] (RyR3 R12, no nucleotide), 0.651 ± 0.11. For the same molecule, the ΔH was -5.53 ± 0.34 kcal/mol in test [3] (RyR3 R12 + 500 µM ADP); -8.63 ± 0.14 kcal/mol in test [3] (RyR3 R12 + 500 µM AMP-PCP); -8.21 ± 0.75 kcal/mol in test [3] (RyR3 R12 + 5 mM ADP); -8.07 ± 0.10 kcal/mol in test [3] (RyR3 R12 + 5 mM AMP-PCP); -80 kcal/mol in test [3] (RyR3 R12, no nucleotide). Besides, the “−TΔS” value was -3.46 kcal/mol in test [3] (RyR3 R12 + 500 µM ADP); -1.11 kcal/mol in test [3] (RyR3 R12 + 500 µM AMP-PCP); -1.64 kcal/mol in test [3] (RyR3 R12 + 5 mM ADP); -2.27 kcal/mol in test [3] (RyR3 R12 + 5 mM AMP-PCP); 75.60 kcal/mol in test [3] (RyR3 R12, no nucleotide).

In the case of `Nc1ncnc2c1ncn2[C@@H]1O[C@H](COP(=O)(O)OP(=O)(O)CP(=O)(O)O)[C@@H](O)[C@H]1O` [AMP-PCP], the “binding of nucleotide alone by ITC” value in test [1] was “did not exhibit detectable binding”.
